Patent US6858638B2, “Substituted indazoles, compositions containing them, method of production and use” (Aventis Pharma S.A., priority 2002, dated 2005)

What was measured:
[1] = biological target: T1, human IGF1R cytoplasmic domain (Homo sapiens, UniProt P08069); assay: IGF1R autophosphorylation inhibition, time resolved fluorescence (HTRF) assay; format: biochemical; conditions: 10 μM; read-out: IGF1R % inhib at 10 μM
T1 construct: The human IGF1R cytoplasmic domain was cloned; made in house; host or cells: SF21 insect cells (baculovirus)
Outline: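 GST-tagged human IGF1R cytoplasmic domain from SF21 cells incubated with compound in 50 mM Hepes pH 7.5, 5 mM MnCl2, 50 mM NaCl, […] ATP. Autophosphorylation detected by HTRF (Eu-K anti-phosphotyrosine, XL665 anti-GST) after EDTA/KF stop; percentage inhibition versus no-compound control.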

T1 sequence (P08069 960-1367 limits assumed): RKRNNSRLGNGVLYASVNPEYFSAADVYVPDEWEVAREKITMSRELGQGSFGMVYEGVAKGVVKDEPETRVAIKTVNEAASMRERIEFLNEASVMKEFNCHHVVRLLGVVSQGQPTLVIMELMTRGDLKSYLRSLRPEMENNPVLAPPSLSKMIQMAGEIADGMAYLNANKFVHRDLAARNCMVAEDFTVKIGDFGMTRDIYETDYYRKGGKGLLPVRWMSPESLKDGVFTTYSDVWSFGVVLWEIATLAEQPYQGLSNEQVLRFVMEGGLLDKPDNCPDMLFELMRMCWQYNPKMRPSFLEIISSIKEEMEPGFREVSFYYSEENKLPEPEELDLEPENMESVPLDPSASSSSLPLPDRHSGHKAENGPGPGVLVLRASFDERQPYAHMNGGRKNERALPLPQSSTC

SMILES | melting point [°C] | inhibition at 10 µM [1] [%]
CS(=O)(=O)c1ccccc1S(=O)(=O)Nc1ccc2[nH]nc(NCc3ccccc3)c2c1 [Example 36, N-(3-Benzylamino-1H-indazol-5-yl)-2-methylsulfonylbenzenesulfonamide] | 226 | 92
CS(=O)(=O)c1ccccc1S(=O)(=O)Nc1ccc2[nH]nc(/C=C/c3ccc(Cl)cc3)c2c1 [Example 76, N-{3-[(E)-2-(4-Chlorophenyl)vinyl]-1H-indazol-5-yl}-2-methylsulfonylbenzenesulfonamide] | 247 | 96
Cc1cc2[nH]nc(-c3ccccc3)c2cc1NS(=O)(=O)c1ccccc1S(C)(=O)=O [Example 92, 2-Methylsulfonyl-N-(6-methyl-3-phenyl-1H-indazol-5-yl)-benzenesulfonamide] | 239 | 62
Nc1n[nH]c2ccc(NS(=O)(=O)c3c(F)cccc3F)cc12 [Example 40, N-(3-Amino-1H-indazol-5-yl)-2,6-difluorobenzenesulfonamide] | 241 | 12
Nc1n[nH]c2ccc(NS(=O)(=O)c3c(Cl)cccc3Cl)cc12 [Example 41, N-(3-Amino-1H-indazol-5-yl)-2,6-dichlorobenzenesulfonamide] | 250 | 18
COC(=O)/C=C/c1n[nH]c2ccc(NS(=O)(=O)c3ccccc3S(C)(=O)=O)cc12 [Example 79, Methyl (E)-3-[5(2-methylsulfonylbenzenesulfonylamino)-1H-indazol-3-yl]-acrylate] | 253 | 37
CS(=O)(=O)c1ccccc1S(=O)(=O)Nc1ccc2[nH]nc(C#Cc3ccccc3)c2c1 [Example 89, 2-Methylsulfonyl-N-(3-phenylethynyl-1H-indazol-5-yl)-benzenesulfonamide] | 198 | 90
CS(=O)(=O)c1ccccc1S(=O)(=O)Nc1ccc2[nH]nc(N)c2c1 [Example 39, N-(3-Amino-1H-indazol-5-yl)-2-methylsulfonylbenzenesulfonamide] | 246 | 72
CNc1n[nH]c2ccc(NS(=O)(=O)c3ccccc3S(C)(=O)=O)cc12 [Example 37, N-(3-Methylamino-1H-indazol-5-yl)-2-methylsulfonylbenzenesulfonamide] | 220 | 51
CS(=O)(=O)c1ccccc1S(=O)(=O)Nc1ccc2[nH]nc(/C=C/c3ccc(F)cc3)c2c1 [Example 74, N-{3-[(E)-2-(4-Fluorophenyl)vinyl]-1H-indazol-5-yl}-2-methylsulfonylbenzenesulfonamide] | 248 | 95
Nc1n[nH]c2ccc(NS(=O)(=O)c3cc(F)cc(F)c3)cc12 [Example 42, N-(3-Amino-1H-indazol-5-yl)-3,5-difluorobenzenesulfonamide] | 232 | 0

Further lines, results first:

melting point [°C] | inhibition at 10 µM [1] [%] | SMILES
167 | 73 | CC(=O)Nc1ccc(S(=O)(=O)Nc2ccc3[nH]nc(-c4ccccc4)c3c2)cc1 [Example 95, N-[4-(3-Phenyl-1H-indazol-5-ylsulfamoyl)phenyl]acetamide]
224 | 87 | CS(=O)(=O)c1ccc(F)cc1S(=O)(=O)Nc1ccc2[nH]nc(-c3ccccc3)c2c1 [Example 93, 5-Fluoro-2-methylsulfonyl-N-(3-phenyl-1H-indazol-5-yl)-benzenesulfonamide]
154 | 85 | CS(=O)(=O)c1ccccc1S(=O)(=O)Nc1ccc2[nH]nc(-c3ccc(N)cc3)c2c1 [Example 70, N-[3-(4-Aminophenyl)-1H-indazol-5-yl]-2-methylsulfonylbenzenesulfonamide]
195 | 82 | CS(=O)(=O)c1ccccc1S(=O)(=O)Nc1ccc2[nH]nc(Sc3ccccc3)c2c1 [Example 88, 2-Methylsulfonyl-N-(3-phenylsulfanyl-1H-indazol-5-yl)-benzenesulfonamide]
202 | 64 | COC(=O)c1cccc(-c2n[nH]c3ccc(NS(=O)(=O)c4ccccc4S(C)(=O)=O)cc23)c1 [Example 55, Methyl 3-[5-(2-methylsulfonylbenzenesulfonamino)-1H-indazol-3-yl]benzoate]
230 | 13 | O=S(=O)(Nc1ccc2[nH]nc(-c3ccccc3)c2c1)C1CCNCC1 [Example 100, N-(3-Phenyl-1H-indazol-5-yl)-piperidine-4-sulfonamide]
248 | 76 | CS(=O)(=O)c1ccccc1S(=O)(=O)Nc1ccc2[nH]nc(-c3ccco3)c2c1 [Example 53, N-(3-Furan-2-yl-1H-indazol-5-yl)-2-methylsulfonylbenzenesulfonamide]
172 to 174 | 94 | O=S(=O)(Nc1ccc2[nH]nc(-c3cc4ccccc4[nH]3)c2c1)c1ccccc1OC(F)(F)F [Example 84, N-[3-(1H-Indol-2-yl)-1H-indazol-5-yl]-2-trifluoromethoxybenzenesulfonamide]
216 | 34 | Nc1n[nH]c2ccc(NS(=O)(=O)c3cccc(F)c3)cc12 [Example 26, N-(3-Amino-1H-indazol-5-yl)-3-fluorobenzenesulfonamide]
240 | 90 | CS(=O)(=O)c1ccccc1S(=O)(=O)Nc1ccc2[nH]nc(-c3cccc(C#N)c3)c2c1 [Example 71, N-[3-(3-Cyanophenyl)-1H-indazol-5-yl]-2-methylsulfonylbenzenesulfonamide]
249 | 70 | Nc1ccc(S(=O)(=O)Nc2ccc3[nH]nc(-c4ccccc4)c3c2)cc1 [Example 94, 4-Amino-N-(3-phenyl-1H-indazol-5-yl)benzenesulfonamide]
249 | 80 | CS(=O)(=O)c1ccccc1S(=O)(=O)Nc1ccc2[nH]nc(-c3ccoc3)c2c1 [Example 52, N-(3-Furan-3-yl-1H-indazol-5-yl)-2-methylsulfonylbenzenesulfonamide]
209 | 94 | CS(=O)(=O)c1ccccc1S(=O)(=O)Nc1ccc2[nH]nc(-c3ccc(F)cc3)c2c1 [Example 33, N-[3-(4-Fluorophenyl)-1H-indazol-5-yl]-2-methylsulfonylbenzenesulfonamide]
244 | 93 | COc1ccc(-c2n[nH]c3ccc(NS(=O)(=O)c4ccccc4S(C)(=O)=O)cc23)cc1 [Example 32, N-[3-(4-Methoxyphenyl)-1H-indazol-5-yl]-2-methylsulfonylbenzenesulfonamide]
265 | 87 | CS(=O)(=O)c1ccccc1S(=O)(=O)Nc1ccc2[nH]nc(-c3ccncc3)c2c1 [Example 54, 2-Methylsulfonyl-N-(3-pyridin-4-yl-1H-indazol-5-yl)benzenesulfonamide]
